# In patent publication US20180263992A1, “TREATMENT OF NEURODEGENERATIVE DISEASES” (BENEVOLENTAI BIO LIMITED, priority 2015, published 2018):
# Tests used:
# [1] = Entry of Gefitinib into the brain with prior P-gp inhibitor; assay type: in vivo, C57BL/6 mice
# [2] = test system: ALS; details: cited from earlier work
# [3] = multi-dose animal studies; cited from earlier work
# [4] = test system: human cancer cells; details: cited from earlier work
# [5] = test system: SOD1G93A mouse model of ALS; details: cited from earlier work
# [6] = in vivo; cited from earlier work
# [7] = phase I trials; cited from earlier work
# [8] = test system: murine Hb9-GFP+ motor neurons co-cultured with ALS patient iAstrocytes; test: ALS patient iAstrocyte / mouse Hb9-GFP+ motor neuron co-culture, motor neuron survival; assay type: cell-based, human iAstrocytes, mouse motor neurons; details: iAstrocytes of three ALS patients pre-treated 24 h; survival at 72 h vs 24 h, normalised to DMSO control
# [9] = target: P-glycoprotein (P-gp) (Homo sapiens, UniProt P08183); details: Togashi et al. 2012; cited from earlier work
# [10] = in vivo; cited from earlier work; remark: listed apart in the source
# P-glycoprotein (P-gp), sequence (P08183 whole entry): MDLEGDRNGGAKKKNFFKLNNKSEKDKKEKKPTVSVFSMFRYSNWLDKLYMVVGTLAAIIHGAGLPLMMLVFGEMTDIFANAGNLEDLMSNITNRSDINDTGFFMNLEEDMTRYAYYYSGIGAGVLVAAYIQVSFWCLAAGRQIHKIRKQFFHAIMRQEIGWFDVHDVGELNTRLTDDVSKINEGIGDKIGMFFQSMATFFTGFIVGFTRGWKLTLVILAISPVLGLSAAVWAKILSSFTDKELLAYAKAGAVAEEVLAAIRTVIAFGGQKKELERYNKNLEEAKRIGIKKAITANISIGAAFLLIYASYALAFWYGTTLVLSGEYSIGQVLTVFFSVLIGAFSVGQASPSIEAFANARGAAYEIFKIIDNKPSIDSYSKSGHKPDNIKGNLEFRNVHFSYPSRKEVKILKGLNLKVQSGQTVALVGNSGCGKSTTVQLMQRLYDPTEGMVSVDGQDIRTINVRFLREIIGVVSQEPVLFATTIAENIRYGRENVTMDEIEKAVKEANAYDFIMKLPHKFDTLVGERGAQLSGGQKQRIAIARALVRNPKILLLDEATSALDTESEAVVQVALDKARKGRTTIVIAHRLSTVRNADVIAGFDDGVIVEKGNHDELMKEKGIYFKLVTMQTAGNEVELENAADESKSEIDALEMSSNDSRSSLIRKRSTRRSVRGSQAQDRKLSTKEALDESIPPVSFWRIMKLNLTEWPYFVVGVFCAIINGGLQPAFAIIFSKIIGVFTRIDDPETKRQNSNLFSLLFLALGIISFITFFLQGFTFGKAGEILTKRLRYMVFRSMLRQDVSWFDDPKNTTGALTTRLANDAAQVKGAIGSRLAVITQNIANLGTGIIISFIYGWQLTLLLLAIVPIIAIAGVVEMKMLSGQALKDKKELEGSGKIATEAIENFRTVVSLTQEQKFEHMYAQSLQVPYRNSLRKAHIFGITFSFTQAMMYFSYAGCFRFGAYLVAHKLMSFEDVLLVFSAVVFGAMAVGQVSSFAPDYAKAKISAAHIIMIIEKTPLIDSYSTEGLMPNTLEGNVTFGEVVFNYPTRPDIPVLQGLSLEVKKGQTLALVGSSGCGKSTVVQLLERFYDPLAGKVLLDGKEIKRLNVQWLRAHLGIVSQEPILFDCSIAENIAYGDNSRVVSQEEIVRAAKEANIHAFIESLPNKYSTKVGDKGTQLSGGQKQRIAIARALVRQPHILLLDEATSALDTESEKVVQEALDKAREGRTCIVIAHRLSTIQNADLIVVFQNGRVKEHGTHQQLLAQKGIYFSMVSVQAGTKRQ
structure (smiles),measurement,setting,value
COc1cc2c(cc1OC)CN(CCc1ccc(NC(=O)c3cccc4c(=O)c5cccc(OC)c5[nH]c34)cc1)CC2 [Elacridar],CNS penetration of Gefitinib,"[1]; Elacridar 100 mg/kg po before Gefitinib 30 mg/kg po, 2 h post dose",significantly increased
same,CNS penetration of Gefitinib,"[1]; Elacridar 100 mg/kg po before Gefitinib 100 mg/kg po, 2 h post dose",significantly increased
CO[C@H]1C[C@@H]2CC[C@@H](C)[C@@](O)(O2)C(=O)C(=O)N2CCCC[C@H]2C(=O)O[C@H]([C@H](C)C[C@@H]2CC[C@@H](OCCO)[C@H](OC)C2)CC(=O)[C@H](C)/C=C(\C)[C@@H](O)[C@@H](OC)C(=O)[C@H](C)C[C@H](C)/C=C/C=C/C=C/1C [Everolimus],CNS penetration of Gefitinib,[1]; Everolimus 10 mg/kg ip,did not appear to have any effect
same,plasma exposure of Gefitinib,[1]; Everolimus 10 mg/kg ip,increased
Nc1nc2ccc(OC(F)(F)F)cc2s1 [Riluzole],prolongs life,[2]; ALS,2-3 months
same,relief of symptoms,[2]; ALS,does not relieve symptoms
same,undesirable side effects,[2]; in vivo,nausea and fatigue
C=CC(=O)Nc1cc2c(Nc3ccc(F)c(Cl)c3)ncnc2cc1OCCCN1CCOCC1 [canertinib],toxicity,[3],minimal toxicity
C#Cc1cccc(Nc2ncnc3cc(OCCOC)c(OCCOC)cc23)c1 [erlotinib],cell-cycle progression,[4],blocks cell-cycle progression in the G1 phase
same,concentration inhibiting EGF-dependent cell proliferation,[4],nanomolar concentrations
same,lifespan,[5],failed to extend lifespan
same,modulation of markers for astrocytes and microglia,[5],did not correlate with a modulation of markers for astrocytes and microglia
same,penetration into the central nervous system,[5],penetrated into the central nervous system
same,protection of motor synapses,[5],did not protect motor synapses
same,symptom delay (readouts of disease onset and progression),[5],modest yet statistically significant symptom delay
same,undesirable side effects,[6],skin irritation and diarrhea
"COc1cc2ncnc(Nc3ccc(F)c(Cl)c3)c2cc1OCCCN1CCOCC1 [gefitinib, N-(3-chloro-4-fluoro-phenyl)-7-methoxy-6-(3-morpholin-4-ylpropoxy)quinazolin-4-amine]",maximal tolerated dosage,[7],700 mg/day
same,motor neuron survival,[8],dose-dependent increase in motor neuron survival
same,P-glycoprotein (P-gp) substrate status,[9],substrate
same,biological half-life,[10],28 hours
